Values of other authors in patent US20220362213A1, “METHODS FOR TREATING POST ENDOSCOPIC RETROGRADE CHOLANGIOPANCREATOGRAPHY PANCREATITIS” (priority 2021, published 2022).

Experiments:
[1] = test system: post-ERCP pancreatitis; conditions: for preventing post-ERCP pancreatitis: two large controlled trials, pharmacologic prevention in high-risk patients
[2] = test system: post-ERCP pancreatitis; conditions: single-dose rectal; meta-analysis of preliminary studies

| Compound | preventing post-ERCP pancreatitis [1] | protective effects in post-ERCP pancreatitis [2] | also measured |
| --- | --- | --- | --- |
| C[C@@H](O)[C@@H]1NC(=O)[C@H](CCCCN)NC(=O)[C@@H](Cc2c[nH]c3ccccc23)NC(=O)[C@H](Cc2ccccc2)NC(=O)[C@@H](NC(=O)[C@H](N)Cc2ccccc2)CSSC[C@@H](C(=O)N[C@H](CO)[C@@H](C)O)NC1=O [octreotide] | ineffective |  | hyperamylasemia ([1]; after ERCP): reduces hyperamylasemia; clinical course of post-ERCP pancreatitis ([1]; human, in vivo): has not been shown to alter the clinical course |
| O=C(O)Cc1ccccc1Nc1c(Cl)cccc1Cl [diclofenac] |  | benefit |  |
| secretin |  |  | incidence of post-ERCP pancreatitis ([1]; retrospective review of 4833 ERCP procedures, patients without pancreas divisum): might decrease the incidence |
| CCOC(=O)c1ccc(OC(=O)CCCCCNC(=N)N)cc1 [gabexate] | ineffective |  | reducing the frequency of post-ERCP pancreatitis ([1]; prophylaxis, meta-analysis of 28 clinical trials): effective |
| COc1ccc2c(c1)c(CC(=O)O)c(C)n2C(=O)c1ccc(Cl)cc1 [indomethacin] |  | benefit |  |
